In experiment [1] the target is T1, Tyrosine-protein phosphatase non-receptor type 1 (Homo sapiens, UniProt P18031).
T1 sequence (P18031 whole entry): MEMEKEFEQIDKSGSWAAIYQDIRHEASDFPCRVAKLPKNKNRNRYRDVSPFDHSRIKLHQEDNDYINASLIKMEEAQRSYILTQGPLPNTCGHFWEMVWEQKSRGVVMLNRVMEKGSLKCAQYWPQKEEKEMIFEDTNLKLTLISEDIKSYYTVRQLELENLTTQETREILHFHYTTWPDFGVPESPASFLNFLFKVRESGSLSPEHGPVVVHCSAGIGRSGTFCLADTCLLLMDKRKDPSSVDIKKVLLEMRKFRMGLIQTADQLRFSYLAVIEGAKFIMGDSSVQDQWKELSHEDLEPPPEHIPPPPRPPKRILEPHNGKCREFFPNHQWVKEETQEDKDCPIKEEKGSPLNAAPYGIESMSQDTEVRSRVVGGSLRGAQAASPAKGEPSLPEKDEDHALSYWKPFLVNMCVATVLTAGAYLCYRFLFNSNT
As to the kind of experiment: Inhibition of PTP1B (unknown origin) using pNPP as substrate incubated for 30 mins by photometric method.

Experiment [2] has as its target T1, Tyrosine-protein phosphatase non-receptor type 1. As to the kind of experiment: Inhibition of human recombinant PTP1B (1 to 322 residues) expressed in Escherichia coli using pNPP as substrate preincubated for 10 mins followed by substrate addition and measured after every 30 secs for 10 mins by photometric method.
The target of experiment [3] is T2, Tyrosine-protein phosphatase non-receptor type 1 (Homo sapiens) (UniProt P18031).
T2 sequence (whole entry): T1 sequence (P18031 whole entry)
The experiment can be described thus: Inhibition of human recombinant PTP1B (1 to 322 residues) expressed in Escherichia coli by HPLC-PDA-HRMS-SPE-NMR analysis.

pIC50: −log10 of the molar value. The source made the active and inactive calls. The rule behind the calls is not given here.

In general, pIC50 refers to the IC50 on a negative log10 scale, so that one unit is a factor of ten. In the case of `CCCCCCCCCCCCCCCCCC(=O)O` [STEARIC ACID], the pIC50 in experiment [1] was 5.64. As for `CCCCCCC[C@H]1[C@H](/C(=C/C=C/C(=O)O)COC(C)=O)[C@@H](/C=C/C(=O)O)C(COC(C)=O)=C[C@H]1CCCCCCC`, the pIC50 in experiment [2] is 4.92. Also, in experiment [3], the inhibition entry is “Active”.

In turn, `CCCCCCCC/C=C\CCCCCCCCCC(=O)O` gave a pIC50 in experiment [1] of 5.85.

As to `CCCCCCCC/C=C\CCCCCCCC(=O)O` [OLEIC ACID], the pIC50 in experiment [1] was 5.21.

With `CCCCCCC[C@@H]1[C@@H](/C(=C/C=C/C(=O)O)COC(C)=O)[C@@H](/C=C/C(=O)O)C(COC(C)=O)=C[C@H]1CCCCCCC`, the pIC50 in experiment [2] is 4.92. In experiment [3], the inhibition entry is “Active”. As to `CCCCCCCCCCCCCCCCCCCC(=O)O` [ARACHIDIC ACID], the negative logarithm of the IC50 (pIC50) in experiment [1] is 5.80. With `CCCCCCC/C=C/C(=C/C=C/C(=O)O)COC(C)=O`, the pIC50 in experiment [2] is 3.32. As for `CCCCCCC[C@@H]1[C@@H](/C(=C/C=C/C(=O)O)COC(C)=O)[C@@H](/C=C/C(=O)O)C(CO)=C[C@H]1CCCCCCC`, in experiment [2], the pIC50 is 4.62. Also, the inhibition result in experiment [3] was “Active”. The like results for `CCCCCCC[C@@H]1[C@@H](/C(=C/C=C/C(=O)O)CO)[C@@H](/C=C/C(=O)O)C(COC(C)=O)=C[C@H]1CCCCCCC` were, in that order, 4.52 and “Active”. `CCCCCCC/C=C/C(=C/[C@H]1[C@H](C(=O)O)[C@H](CCCCCCC)C=C(COC(C)=O)[C@@H]1/C=C/C(=O)O)COC(=O)O`: the pIC50 in experiment [2] was 4.18. Also, the inhibition result in experiment [3] was “Active”. For the compound `CCCCCCC/C=C/C(C)=C/C=C/C(=O)O`, the pIC50 in experiment [2] was 4.14. Same read-out and setting: in the case of `C=C(/C=C/CCCCCCC)CCCC(=O)O` it was 3.84. Consider `CCCCCCC[C@H]1[C@H](/C(=C/C=C/C(=O)O)CO)[C@@H](/C=C/C(=O)O)C(COC(C)=O)=C[C@H]1CCCCCCC`, for which, in experiment [2], the pIC50 was 5.62. The inhibition result in experiment [3] was “Active”.

For the compound `CCCCCCCCCCCCCCCC(=O)O` [PALMITIC ACID], the pIC50 in experiment [1] was 5.06. On to `CCCCCCCCCCCCCCCC(=O)C1=C(O)[C@@H](CO)OC1=O`, for which the pIC50 in experiment [2] is 5.14. On the same count and under the same terms, in the case of `CCCCCCC/C=C/C(=C/C=C/C(=O)O)CO` it was 3.79. `CCCCCC/C=C\CCCCCCCC(=O)O` [PALMITOLEIC ACID] had a pIC50 in experiment [1] of 5.19.

Turning to `CCCCCCC/C=C/C(=C\C=C\C(=O)O)COC(C)=O`, the pIC50 in experiment [2] was 4.42.

These data come from ChEMBL document CHEMBL4616647, “PTP1B-Inhibiting Branched-Chain Fatty Acid Dimers from Eremophila oppositifolia subsp. angustifolia Identified by High-Resolution PTP1B Inhibition Profiling and HPLC-PDA-HRMS-SPE-NMR Analysis” (J Nat Prod, 2020).
